Data as given in publication PMC4088952 (Psychoneuroendocrinology, 2014).
Several values for one entry are separate records, joined by “and”; a condition that tells them apart may be missing. Equal entries are not always repeated.

Key:
plasma OT levels = assay: Plasma oxytocin levels after oral MDMA; format: in vivo, humans
subjective drug effects = assay: Drug Effects Questionnaire; format: in vivo, humans; conditions: oral MDMA; all subjective ratings (DEQ and VAS)
[1] = test system: heart rate and blood pressure; assay: Cardiovascular measures; format: in vivo, humans; conditions: intranasal oxytocin 20 IU or 40 IU versus placebo

| Compound | plasma OT levels compared to placebo (plasma OT levels; oral MDMA 0.75 mg/kg, N=14, t[13] = 2.96, p = 0.07) | duration of plasma OT elevation (plasma OT levels; oral MDMA 1.5 mg/kg) [h] | time of mean peak plasma OT concentration after capsule ingestion (plasma OT levels; oral MDMA 1.5 mg/kg, N=14) | time to significantly elevated plasma OT following capsule administration (plasma OT levels; oral MDMA 1.5 mg/kg, first time point) [min] | time of peak effects on all subjective ratings after capsule ingestion (subjective drug effects) [min] | plasma OT levels compared to placebo (intranasal oxytocin 20 IU, N=6) | duration of plasma OT elevation (intranasal oxytocin 40 IU) [min] | time of peak plasma OT after nasal spray administration (intranasal oxytocin 40 IU, N=8) [min] | cardiovascular and subjective effects [1] |
| --- | --- | --- | --- | --- | --- | --- | --- | --- | --- |
| CNC(C)Cc1ccc2c(c1)OCO2 (racemic) [MDMA, ±3,4-methylenedioxymethamphetamine] | slightly increased compared to placebo but this difference did not reach significance | 3 | 90 to 120 min and 120 min | ≤ 60 | 60 to 120 | – | – | – | – |
| CC[C@H](C)[C@@H]1NC(=O)[C@H](Cc2ccc(O)cc2)NC(=O)[C@@H](N)CSSC[C@@H](C(=O)N2CCC[C@H]2C(=O)N[C@@H](CC(C)C)C(=O)NCC(N)=O)NC(=O)[C@H](CC(N)=O)NC(=O)[C@H](CCC(N)=O)NC1=O [Oxytocin, oxytocin] | – | – | – | – | – | did not observe an increase in plasma OT | 30 | 30 to 60 | no cardiovascular or subjective effects |
